# Like-named read-outs stand apart in the source and are kept apart here.
# Experiments:
# Format in all cases: in vivo
# [1] = system: rat; assay: Randall-Selitto test (yeast oedema, model for inflammatory pain); conditions: for effect of compound A with COX-II inhibitor (Rofecoxib or Celecoxib) compared with additive (in words): staggered administration, Rofecoxib or Celecoxib 1 hour prior to compound A
# Experimental: The Randell-Selitto test of Randall and Selitto (Arch. Int. Pharmacodyn., 1957, 111: 409 to 419) is a model for inflammatory pain.
# By means of the injection of 0.1 ml 20% baking yeast suspension ventrally into a hind paw an oedema was induced, on which pain was generated 4 hours later by continuously increasing pressure with a stamp (2 mm tip diameter). The measured value to be determined and at the same time also the end point of the pain test was the pressure at which the vocalisation reaction of the animal occurred. The percentage maximum possible effect (%MPE) was calculated. The maximum pressure of the stamp was 250 g. The group size was n=10.
# The theoretical additive value was calculated by adding the mean values from the individual tests of the test substance and COX-II inhibitor. The corresponding standard deviation of the theoretical additive mean value was calculated from the addition of the variances.
# [2] = All listed animal models together (acute, chronic and inflammatory pain); conditions: simultaneous administration with a selective COX-II inhibitor (Rofecoxib or Celecoxib), chronic and inflammatory pain (Table 1)
# Experimental: 1, 4, 2 and 2 (Randall-Selitto test). In these tests, either Rofecoxib or Celecoxib was administered 1 hour prior to the administration of the selected analgesic (compound A). In a few tests, Rofecoxib was administered as the final preparation Vioxx and Celecoxib as Celebrex.
# [3] = system: mouse; assay: Formalin test (chronic pain component), mouse; conditions: peroral, substance alone
# Experimental: (§1) The formalin test (Dubuisson, D. and Dennis, S. G., 1977, Pain, 4, 161 to 174) is a model for acute and chronic pain. In the tests presented here, the chronic pain component was evaluated.
# (§2) By means of a single formalin injection into the dorsal side of a hind paw of test animals that were able to move freely, a biphasic nociceptive reaction, which was detected by the observation of three clearly distinguishable behavioural patterns, was induced.
# (§3) Formalin having a volume of 20 μl and a concentration of 1% was administered subcutaneously into the dorsal side of the right hind paw of each animal. The specific behavioural changes, such as raising and shaking of the paw, weight loss in the animal and biting and licking reactions, were continuously observed and registered for up to 60 min after the formalin administration. The behavioural changes were weighted differently (a score of 0 to 3) and a pain rate (PR) calculated having the general formula: PR=[(T0×0)+(T1×1)+(T2×2)+(T3×3)/180.
# (§4) The group contained 10 animals (n=10).
# [4] = system: rat; assay: Writhing test (acetic acid, model for acute pain); conditions: peroral, substance alone
# Experimental: The writhing test is a modification of the method of Schmauss C and Yaksh TL, J Pharmacol Exp Ther 228: 1-12 (1984) and a model for acute pain.
# 9% acetic acid was administered to the animals intraperitoneally as a pain stimulus. This was administered 30 min (test substance perorally) or 10 min (test substance intravenously) after the administration of the test substance. The pain-induced writhing reactions were recorded 10 to 35 min after the administration of acetic acid. […] Pain expressions, such as a slanting body angle when the animal stands upright, frequent cleaning of the belly or arching of the back without stretching of the rear limbs, were thus included in the evaluation.
# The animals that had been treated with the substance were compared with a control group, which had been given physiological saline solution. The group contained 10 animals (n=10).
# [5] = system: rat; assay: Formalin test (chronic pain component), rat; conditions: peroral, substance alone
# Experimental: as §1, §2, §3, §4
# [6] = read-out: ED50 [mg/kg] of compound A
# [7] = read-out: ED50 [mg/kg] of COX-II inhibitor
compound,measurement,setting,value
COc1cccc([C@@]2(O)C[C@H](O)CC[C@@H]2CN(C)C)c1.Cl (racemic) [Compound 4],% effect of compound A,"[1]; Table 2, staggered series, compound A alone 68.1 mg/kg peroral, 15-75 min after administration of compound No. 4",85.4%
same,% effect of compound A,"[1]; Table 2, staggered series, compound A alone 68.1 mg/kg peroral, 75-90 min after administration of compound No. 4",45.2%
same,effect of compound A with COX-II inhibitor (Rofecoxib or Celecoxib) compared with additive (in words),[1],clear effect-increasing supra-additive effect
"CN(C)C[C@@H]1CCCC[C@H]1c1cccc(O)c1.Cl [Compound 1, (1R,2R)-3-(2-dimethylaminomethyl-cyclohexyl)-phenol; hydrochloride]",% effect of compound A,"[1]; Table 3, staggered series, compound A alone 46.4 mg/kg peroral",26.2%
same,effect of compound A with COX-II inhibitor (Rofecoxib or Celecoxib) compared with additive (in words),[1],clear effect-increasing supra-additive effect
same,effect in comparison to the theoretically calculated purely additive effect,[2],intensification of effect
"CC[C@@H](c1cccc(O)c1)[C@@H](C)CN(C)C.Cl [Compound 2, (1R,2R)-3-(3-dimethylamino-1-ethyl-2-methyl-propyl)-phenol; hydrochloride]",ED50,[3]; [6],34.6 mg/kg
same,% effect of compound A,"[1]; Table 1, staggered administration series, compound A alone 31 mg/kg peroral",20.0%
same,% effect of compound A,"[1]; Table 1, staggered administration series, compound A alone 46 mg/kg peroral",32.6%
same,% effect of compound A,"[1]; fixed dose combination (not staggered), compound A alone 31 mg/kg peroral, %MPE",13.3%
same,effect of compound A with COX-II inhibitor (Rofecoxib or Celecoxib) compared with additive (in words),[1],clear effect-increasing supra-additive effect
same,ED50,[4]; [6],33 mg/kg
same,ED50,[5]; [6],18 mg/kg
"CC[C@H](c1cccc(O)c1)[C@H](C)CN(C)C.Cl [Compound 3, (1S,2S)-3-(3-dimethylamino-1-ethyl-2-methyl-propyl)-phenol; hydrochloride]",% effect of compound A,"[1]; Table 4, staggered series, compound A alone 21.5 mg/kg peroral",22.8%
"Cc1ccc(-c2cc(C(F)(F)F)nn2-c2ccc(S(N)(=O)=O)cc2)cc1 [Compound 101, Celecoxib, reference compound]",ED50,[3]; [7],38.5 mg/kg
same,% effect of COX-II inhibitor,"[1]; fixed dose combination (not staggered), COX-II inhibitor alone 215 mg/kg peroral, %MPE",9.8%
same,ED50,[5]; [7],154 mg/kg
"CS(=O)(=O)c1ccc(C2=C(c3ccccc3)C(=O)OC2)cc1 [Compound 102, Rofecoxib, reference compound]",ED50,[4]; [7],60.1 mg/kg

# Reference: patent publication US7786160B2, “Combination of selected analgesics and COX-II inhibitors” (Gruenenthal GmbH, priority 2002, dated 2010)
